The text below walks through data of patent publication US20240209043A1, “NON-ANTIBODY BINDING PEPTIDES AND THEIR ANALOGS DUAL-TARGETING TO PD-1 AND PD-L1, AND USES THEREOF” (ORAL SUBSIDIARY SUN YAT-SEN UNIVERSITY HOSPITAL, priority 2021, published 2024).

Entries after “also recorded” stand apart in the source; their conditions may differ. Where a SMILES comes first, the peptide text is derived from it. Bridges are numbered along the chain shown (N, C = ends). Roman numbers before positions name the chains, in order. Where no end group is shown, it is not given here.

Data set [1] has as its target T1, PD-1 (Homo sapiens, UniProt Q15116). The experiment in a line: ka (1/Ms). From the text: Table printed on a drawing sheet, Figure 2E
Title: nABP786 binding to PD-1
(§1) Head of the field: ka (1/Ms)
(§2) The patent's description of the figure: FIG. 2A depicts test results of binding affinity of nABP284 to PD-1 measured by surface plasmon resonance (SPR);
(§3) FIG. 2B depicts test results of binding affinity of nABP386 to PD-1 measured by SPR;
(§4) FIG. 2C depicts test results of binding affinity of nABP486 to PD-1 measured by SPR;
(§5) FIG. 2D depicts test results of binding affinity of nABP486 to PD-L1 measured by SPR;
(§6) FIG. 2E depicts test results of binding affinity of nABP786 to PD-1 measured by SPR;
(§7) FIG. 2F depicts test results of binding affinity of nABP786 to PD-L1 measured by SPR;
First copying reader's note: Inset table of SPR kinetic constants printed above the sensorgram; the target is PD-1.
Where the first naming reader finds the target: table_title: nABP786 binding to PD-1
Target sequence in this assay (Q15116 25-288 limits assumed): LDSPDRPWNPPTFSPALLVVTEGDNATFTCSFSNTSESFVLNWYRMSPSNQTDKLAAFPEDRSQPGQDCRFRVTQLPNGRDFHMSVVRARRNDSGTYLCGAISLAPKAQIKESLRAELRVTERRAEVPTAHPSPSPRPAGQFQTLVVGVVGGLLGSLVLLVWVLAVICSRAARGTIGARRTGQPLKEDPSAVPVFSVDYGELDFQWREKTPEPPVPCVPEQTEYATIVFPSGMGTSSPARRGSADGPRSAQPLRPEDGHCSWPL

The target of data set [2] is T2, PD-L1 (Homo sapiens, UniProt Q9NZQ7). As to the kind of experiment: ka (1/Ms).
Excerpt: Table printed on a drawing sheet, Figure 2F
Title: nABP786 binding to PD-L1
as §1, §2, §3, §4, §5, §6, §7
Target sequence in this assay (Q9NZQ7 19-290 limits assumed): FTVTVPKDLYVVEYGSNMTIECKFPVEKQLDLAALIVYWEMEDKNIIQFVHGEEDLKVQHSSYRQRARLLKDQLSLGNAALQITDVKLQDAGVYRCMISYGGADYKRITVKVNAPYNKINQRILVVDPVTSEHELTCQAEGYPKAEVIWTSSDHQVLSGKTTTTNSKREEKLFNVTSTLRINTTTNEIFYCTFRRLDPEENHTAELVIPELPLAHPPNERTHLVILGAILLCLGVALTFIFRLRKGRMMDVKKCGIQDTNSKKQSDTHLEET
First copying reader's note: Inset table of SPR kinetic constants printed above the sensorgram; the target is PD-L1.
Where the first naming reader finds the target: table_title: nABP786 binding to PD-L1

Data set [3] deals with T2, PD-L1. To be noted: background section; read-out: Kd-value of antibody drug targeting PD-L1; cited from earlier work.
Target sequence in this assay (Q9NZQ7 19-290): as the sequence (Q9NZQ7 19-290 limits assumed) above
Data set [4] deals with T1, PD-1. To be noted: background section; read-out: Kd-value of antibody drug targeting PD-1; cited from earlier work.
Target sequence in this assay (Q15116 25-288): as the sequence (Q15116 25-288 limits assumed) above
Data set [5] deals with peripheral blood derived lymphocytes. The experiment in a line: CCK-8 cytotoxicity assay on PBMCs / iCIKs. The class given is cell-based, Human. Particulars: CCK-8, 1-64 μM, 24 hours. How it is done:
(§8) Cytotoxicity assay was performed and measured with Cell Counting Kit-8 (CCK-8, Dujindo, Japan). Jurkat cells (each well with 4000 cells), PBMCs (each well with 4000 cells) and Cal27 cells (each well with 2000 cells) were added into a 96-well plate and cultured for 24 hours, respectively. nABP284, nABP386 and nABP486 in a concentration gradient of 1 μM, 2 μM, 3 μM, 4 μM, 8 μM, 16 μM, 32 μM and 64 μM were added into the medium and the cells were cultured for 24 hours in a cell incubator. After that, 10 μl of CCK-8 solution was added to each well and the cells were incubated for 2 hours. VictorX5 Multilabel plate reader (PerkinElmer, Singapore) was used for measuring absorbance of each well at 450 nm. Cell viability (%) was calculated by the following formula:
(§9) Cell viability (%)=[(Sample A−Background A)/(Control A−Blank A)×100%. • Wherein Sample A denotes the absorbance of the experimental well (including cells, CCK-8 solution, medium and peptide diluent) • Background A denotes the absorbance of the background hole (including CCK-8 solution, medium, and peptide diluent without cells); • Control A denotes the absorbance of the control hole (including cells, CCK-8 solution and medium without peptide diluent); and • Blank A denotes the absorbance of the blank hole (including CCK-8 solution and medium without cells and peptide diluent).
On the technique in general: Formazan colour is commonly taken as a measure of viable cells.

A further data set relates to Cal27 cells. The experiment in a line: CCK-8 cytotoxicity assay on Cal27 cells. The class given is cell-based, Human. To be noted: CCK-8, 1-64 μM, 24 hours. On the procedure: as §8, §9
Another data set concerns Jurkat T cells. As to the kind of experiment: CCK-8 cytotoxicity assay on Jurkat T cells. The class given is cell-based, Human. To be noted: CCK-8, 1-64 μM, 24 hours. How it is done: as §8, §9
Data set [6] concerns Cal27 cells co-cultured with iCIKs. The experiment in a line: iCIKs-mediated tumor killing efficiency on Cal27 cells (LDH release). The class given is cell-based, Human. Particulars: 10 μM peptide or 2 ug/ml antibody, iCIKs:Cal27 10 to 1, 6 hours. On the procedure: Human peripheral blood and PBS are mixed at a ratio of 1 to 1, and then the mixture was added to the surface of Ficoll solution in an equal volume and the mixture and Ficoll were kept layered. Density gradient centrifugation (400 g, 20 min) was used for separating components of the peripheral blood. 10 ug/ml of Anti-CD3 monoclonal antibody (T210, TAKARA) was coated on cell culture dishes to cover the mixture at 4° C. overnight. The separated PBMCs were added to the coated dishes in which RPMI1640 medium supplemented with 10% of fetal calf serum, 2000 U/ml of IFN-γ, and 10 ng/ml of IL-2 was added and was changed every three days. After a ten-day culture, the stimulated PBMCs were known as improving cytokine-induced killer cells (iCIKs).
500 U/ml of IFN-γ was used for stimulating Cal27 cells for 48 hours. The iCIKs were incubated with 10 uM of nABP284, 10 μM of nABP386, 10 μM of nABP486, and 2 ug/ml of PD-1 functional monoclonal antibody (J116, eBioscience|ThermoFisher Science) for 1 hour at 37° C., respectively, and the stimulated CAL27 cells were added to the 96-well plate at 1×10^4 cells per well. […] After these cells were co-cultured for 6 hours, a Cyto Tox Non-Radioactive Cytotoxicity Assay kit was used for detecting the level of lactic dehydrogenase (LDH) in the medium and VictorX5 multilabel plate reader (PerkinElmer, Singapore) was used for measuring absorbance at 490 nm.

Consider `CC[C@H](C)[C@H](NC(=O)[C@H](CCC(=O)O)NC(=O)[C@H](CCCCN)NC(=O)[C@H](CC(C)C)NC(=O)[C@H](CCCCNC(=O)[C@H](CC(C)C)NC(=O)[C@H](CCCNC(=N)N)NC(=O)[C@H](Cc1c[nH]cn1)NC(=O)[C@H](Cc1c[nH]cn1)NC(=O)[C@H](Cc1c[nH]cn1)NC(=O)[C@@H](N)CO)NC(=O)[C@H](CC(C)C)NC(=O)[C@H](CCCNC(=N)N)NC(=O)[C@H](Cc1c[nH]cn1)NC(=O)[C@H](Cc1c[nH]cn1)NC(=O)[C@H](Cc1c[nH]cn1)NC(=O)[C@@H](N)CO)C(=O)N[C@@H](C)C(=O)N[C@@H](CC(N)=O)C(=O)N[C@@H](CS)C(=O)N[C@@H](CO)C(=O)N1CCC[C@H]1C(=O)N[C@H](C(=O)N[C@@H](CCC(N)=O)C(=O)N[C@@H](Cc1ccccc1)C(=O)N[C@@H](CCCCN)C(=O)N[C@@H](CS)C(=O)O)[C@@H](C)O` [nABP786] (HELM PEPTIDE1{S.H.H.H.R.L.K.L.K.E.I.A.N.C.S.P.T.Q.F.K.C}|PEPTIDE2{S.H.H.H.R.L}$PEPTIDE1,PEPTIDE2,7:R3-6:R2$$$V2.0), for which the “ka” value on PD-1 [1] was 77600 M⁻¹ s⁻¹; at PD-L1 [2], 29000 M⁻¹ s⁻¹.

What is called Kd is a measure of binding affinity in units of concentration. For the molecule Atezolizumab, the Kd with PD-L1 [3] is 0.4 nM.

In the case of Cemiplimab, the Kd on PD-1 [4] was 6.11 nM.

With Cindilimab, in the data set with PD-1 [4], the Kd is 0.25 nM.

Take Durvalumab: in the data set with PD-L1 [3], the Kd is 0.667 nM.

Turning to “I: SHHHRLKLKEIANSPTQFWRMVARNTLGNGAKQSLNIEHA / II: SHHHRL (amide I:7-II:C) [nABP486]”, the “toxicity on peripheral blood derived lymphocytes” value in data set [5] is “non-toxic and side effects”. In addition, the “direct cytotoxicity to Cal27 cells” value in the data set on Cal27 cells was “no directly cytotoxicity; also recorded: no direct killing ability to Cal27 cells; also recorded: non-toxic and side effects”. The “direct cytotoxicity to Jurkat T cells” value in the data set with Jurkat T cells was “no directly cytotoxicity; also recorded: non-toxic and side effects”. Further, the “iCIKs-mediated cytotoxicity (killing ability) for Cal27 cells” value in data set [6] is “significantly increased; also recorded: significantly reverse the immune escape of tongue cancer cells; also recorded: superior to functional anti-PD-1 antibody; also recorded: can enhance the tumor killing effect of lymphocytes on tumor cells”.

With “I: SRLKEIANSPTQFWRMVARNTLGNHAKQSLNIEHA / II: SHHHRL (amide I:27-II:C) [nABP386]”, the “toxicity on peripheral blood derived lymphocytes” value in data set [5] is “non-toxic and side effects”. For the same molecule, the “direct cytotoxicity to Cal27 cells” value with Cal27 cells was “no directly cytotoxicity; also recorded: non-toxic and side effects”. The “direct cytotoxicity to Jurkat T cells” value with Jurkat T cells was “no directly cytotoxicity; also recorded: non-toxic and side effects”. Besides, the “iCIKs-mediated cytotoxicity (killing ability) for Cal27 cells” value in data set [6] was “can enhance the tumor killing effect of lymphocytes on tumor cells”.

For Toripalimab, the Kd with PD-1 [4] is 0.324 nM.
